# Experimental data from PubChem BioAssay AID743059 (The Scripps Research Institute Molecular Screening Center, 2013).
# Activity calls are given as the source filed them.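 The calls were made as follows: active = EC50 at or below 10 µM; inactive = EC50 above 10 µM.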
# Target: Nuclear hormone receptor DAF-12 (Heterodera glycines)
# Assay: hgDAF-12 reporter activation EC50 – cell-based, luminescence, HEK293, dose response (AID 743059);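 also: agonist potency for compounds that raise hgDAF-12 reporter luminescence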
# Conditions: HEK293 hgDAF-12 reporter, luciferase luminescence
row,Compound,EC50
1,O=C(/C=C/c1ccccc1)N1CCC(c2ccccc2)C1 (stereo not drawn),> 67.5 µM (inactive)
2,CCOC(=O)c1sc2nc3c(cc2c1N)COC(C)(CC)C3 (stereo not drawn),> 67.5 µM (inactive)
3,CCOC(=O)CSc1nc(-c2ccncc2)ccc1C#N,> 67.5 µM (inactive)
4,CCOC(=O)N1CCC(NC(=O)c2cc3ccccn3n2)CC1,> 67.5 µM (inactive)
5,Nc1nc(Nc2ccc(Cl)cc2)nc2ccccc12,> 67.5 µM (inactive)
6,Nc1ncc(Br)cc1N=Cc1ccccc1,> 67.5 µM (inactive)
7,Clc1cccc(-c2nnc(-c3ccccc3)o2)c1,> 67.5 µM (inactive)
8,O=C(NCCc1ccccc1)c1cc(-c2ccco2)on1,7.6 µM
9,CN1C(=O)/C(=C/C=C2\SCCN2C)N(C)C1=S,> 67.6 µM (inactive)
10,Nc1ccc(C(=O)Nc2ccccc2N)cc1,4.24 µM
11,Nc1ccc2c(c1)Cc1cc(N)c(Cl)cc1-2,> 67.4 µM (inactive)
12,CS(=O)(=O)c1ccc2nc(NC(=O)Nc3ccccc3F)sc2c1,> 67.5 µM (inactive)
13,Cc1ccc2nc(C)/c(=N\O)c(C)nc2c1,> 67.6 µM (inactive)
14,COC1=C/C(=C/c2c(N)n3nc(-c4ccc(C)cc4)sc3nc2=O)C=CC1=O,> 67.5 µM (inactive)
15,CCn1c(O)c(C=Nc2ccccc2)sc1=S,> 67.5 µM (inactive)
16,Cc1c(C(=O)Nc2nccs2)oc2ccccc12,> 67.6 µM (inactive)
17,Cc1cccc(/C(N)=N/OC(=O)c2ccco2)c1,> 67.6 µM (inactive)
18,CCOC(=O)c1csc(-c2sccc2Br)n1,> 67.6 µM (inactive)
19,Clc1ccc(Nc2ccc3ccccc3n2)cc1,> 67.5 µM (inactive)
20,c1cncc(-c2noc(-c3ccc4ccccc4c3)n2)c1,> 67.5 µM (inactive)
21,CCOC(=O)c1c(C)[nH]c(N=Nc2cccc(OC)c2)c1C,> 67.5 µM (inactive)
22,CC(=Nc1ccc(Cl)cc1N)c1c(O)cc(C)oc1=O,> 67.6 µM (inactive)
23,CC1=CN2C(=N)/C(=C/c3ccco3)C(=O)N=C2S1,> 67.5 µM (inactive)

# Next, values leading:
row,EC50,Compound
1,> 67.5 µM (inactive),CCc1ccc(C2CC(c3ccco3)=NN2S(C)(=O)=O)cc1 (stereo not drawn)
2,> 67.6 µM (inactive),Cc1ccc(-c2csc(NC(=O)/C=C/c3ccco3)c2C(=O)O)cc1
3,> 67.5 µM (inactive),Nc1c(-c2cccs2)cnc2c(-c3ccc(F)cc3)cnn12
4,> 67.1 µM (inactive),c1ccc([C@H]2CN3C(=N2)Sc2ccccc23)cc1
5,> 67.5 µM (inactive),S=C(c1ccc(-c2ccc(Cl)cc2)o1)N1CCCCC1
6,> 67.5 µM (inactive),CC1CCc2c(sc(NC(=O)C3=COCCO3)c2C(N)=O)C1 (stereo not drawn)
7,> 67.5 µM (inactive),COc1ccc2oc(C(=O)Nc3nccs3)c(C)c2c1
8,> 67.6 µM (inactive),O=c1[nH]c(=O)n(C2CC(O)C(CO)O2)cc1I (stereo not drawn)
9,> 67.5 µM (inactive),COc1ccc2[nH]c(C(=O)Nc3cccc(C)n3)cc2c1
10,> 67.5 µM (inactive),Cn1c(NC(=O)CCC2CCCCC2)cc(=O)n(C)c1=O
